Structures can show the parent of a compound that is named as a salt. Where two headings read alike, the source gives them in different places.
Tests used:
human PI3Kα protein = target: T1, human PI3Kα protein (Homo sapiens, UniProt P42336); assay: PI3Kα enzyme assay (ADP-Glo); format: biochemical; conditions: read-out: PI3Kα enzyme inhibitory activity
T1 construct: purchased Carna Biosciences, Inc; host or cells: baculovirus expression system
Procedure, shortened: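 Biotinylated human PI3Kα (baculovirus-expressed, 4.5 nmol/L) pre-incubated 15 min with compound in Tris-HCl pH 7.5, MgCl2, BSA; reaction 60 min at 25° C with 50 μmol/L PIP2 and 100 μmol/L ATP final. ADP quantified by ADP-Glo luminescence; IC50 calculated.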

[1] = target: T2, GST fusion human ERK2 protein (Homo sapiens, UniProt P28482); assay: ERK2 enzyme assay (1); format: biochemical; conditions: read-out: ERK2 enzyme inhibitory activity (1)
T2 construct: purchased Carna Biosciences, Inc; host or cells: E. coli expression system
Procedure, shortened: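 IC50 derived from the proportion of phosphorylated 5-FAM peptide, separated from unphosphorylated peptide by microfluidic mobility shift. Compound was first preincubated 15 min at room temperature with 2.5 nmol/L kinase at pH 7.5, then 43.1 μmol/L ATP plus 4.25 μmol/L substrate reacted 120 min at 25 °C.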

[2] = 4.5 nmol/L PI3Kα, PIP2 50 μmol/L, ATP 100 μmol/L
[3] = 2.5 nmol/L ERK2, ATP 43.1 μmol/L

T2 sequence (P28482 whole entry, the tested form may be a part): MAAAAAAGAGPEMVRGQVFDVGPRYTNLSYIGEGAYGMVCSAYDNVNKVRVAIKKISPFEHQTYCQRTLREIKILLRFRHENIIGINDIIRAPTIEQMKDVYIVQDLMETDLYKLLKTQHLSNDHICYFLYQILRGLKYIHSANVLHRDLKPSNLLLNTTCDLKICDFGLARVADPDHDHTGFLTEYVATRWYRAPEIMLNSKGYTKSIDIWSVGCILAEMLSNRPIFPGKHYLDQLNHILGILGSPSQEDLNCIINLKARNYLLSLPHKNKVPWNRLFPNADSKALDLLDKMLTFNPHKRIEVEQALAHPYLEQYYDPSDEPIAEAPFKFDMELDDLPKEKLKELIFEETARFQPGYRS
T1 sequence (P42336 whole entry): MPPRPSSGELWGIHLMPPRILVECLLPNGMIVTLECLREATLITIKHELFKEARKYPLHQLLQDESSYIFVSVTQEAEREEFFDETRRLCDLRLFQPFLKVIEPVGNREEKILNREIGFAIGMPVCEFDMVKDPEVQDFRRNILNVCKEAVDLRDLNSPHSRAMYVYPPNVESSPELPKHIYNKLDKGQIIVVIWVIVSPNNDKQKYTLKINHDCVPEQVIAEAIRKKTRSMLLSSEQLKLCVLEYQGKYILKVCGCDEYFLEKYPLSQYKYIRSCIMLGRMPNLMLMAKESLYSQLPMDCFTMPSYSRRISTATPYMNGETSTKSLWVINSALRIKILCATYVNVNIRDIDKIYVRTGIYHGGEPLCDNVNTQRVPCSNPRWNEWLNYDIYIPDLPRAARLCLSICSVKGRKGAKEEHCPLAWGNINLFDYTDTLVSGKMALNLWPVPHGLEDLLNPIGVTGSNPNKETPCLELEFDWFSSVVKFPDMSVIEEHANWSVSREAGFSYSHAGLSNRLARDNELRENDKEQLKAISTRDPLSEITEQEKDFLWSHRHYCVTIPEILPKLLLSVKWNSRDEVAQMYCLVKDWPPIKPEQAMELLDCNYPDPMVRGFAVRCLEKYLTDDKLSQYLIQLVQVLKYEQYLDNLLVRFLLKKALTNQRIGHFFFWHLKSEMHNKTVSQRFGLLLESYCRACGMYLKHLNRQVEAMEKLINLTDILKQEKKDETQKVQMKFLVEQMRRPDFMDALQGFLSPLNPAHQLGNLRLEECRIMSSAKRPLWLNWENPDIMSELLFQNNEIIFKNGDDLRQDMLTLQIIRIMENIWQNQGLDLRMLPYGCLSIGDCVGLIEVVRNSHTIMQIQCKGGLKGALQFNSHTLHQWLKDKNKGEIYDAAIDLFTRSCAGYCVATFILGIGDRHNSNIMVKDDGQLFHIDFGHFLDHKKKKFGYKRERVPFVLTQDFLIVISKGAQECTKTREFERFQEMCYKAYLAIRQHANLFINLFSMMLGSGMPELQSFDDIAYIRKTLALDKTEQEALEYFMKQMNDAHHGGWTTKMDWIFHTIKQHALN
T1 sequence (P27986 whole entry partner): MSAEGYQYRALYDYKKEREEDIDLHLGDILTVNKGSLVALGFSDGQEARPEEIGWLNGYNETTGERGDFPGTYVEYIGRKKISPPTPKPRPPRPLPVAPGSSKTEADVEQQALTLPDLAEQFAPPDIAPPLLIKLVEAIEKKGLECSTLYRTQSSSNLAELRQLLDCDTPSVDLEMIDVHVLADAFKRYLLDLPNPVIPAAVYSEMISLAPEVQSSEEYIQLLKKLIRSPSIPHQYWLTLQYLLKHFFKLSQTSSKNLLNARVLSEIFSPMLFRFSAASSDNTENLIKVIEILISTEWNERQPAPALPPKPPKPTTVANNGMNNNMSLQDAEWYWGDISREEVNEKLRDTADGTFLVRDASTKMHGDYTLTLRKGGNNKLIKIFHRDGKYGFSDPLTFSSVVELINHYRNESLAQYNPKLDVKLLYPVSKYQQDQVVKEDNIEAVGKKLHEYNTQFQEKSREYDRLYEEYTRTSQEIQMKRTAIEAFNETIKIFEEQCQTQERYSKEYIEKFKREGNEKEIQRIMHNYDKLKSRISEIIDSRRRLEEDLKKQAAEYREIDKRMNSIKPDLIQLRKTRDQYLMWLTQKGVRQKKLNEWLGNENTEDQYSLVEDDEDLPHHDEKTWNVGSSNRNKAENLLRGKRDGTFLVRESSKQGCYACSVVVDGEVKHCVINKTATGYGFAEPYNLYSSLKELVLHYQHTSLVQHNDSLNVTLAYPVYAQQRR

SMILES | IC50 (human PI3Kα protein) [nM] | IC50 ([1]; ERK2 enzyme assay (1)) [nM] | IC50 (human PI3Kα protein; [2]) [nM] | IC50 [1, 3] [nM]
c1nc2ccc(Nc3nnc(C4CCCO4)s3)nc2cc1-c1cnn(C2CCNCC2)c1 (centres unmarked) [Example 0324, N-(7-(1-(piperidin-4-yl)-1H-pyrazol-4-yl)-1,5-naphthyridin-2-yl)-5-(tetrahydrofuran-2-yl)-1,3,4-thiadiazole-2-amine] | < 1000 | < 1000 | – | –
c1nnc(Nc2ccc3ncc(N4CCOCC4)cc3n2)s1 [Example 0003, N-(7-morpholino-1,5-naphthyridin-2-yl)-1,3,4-thiadiazole-2-amine] | – | – | 1000 to 10000 | < 1000
c1ccc(CNc2cnc3ccc(Nc4nnc(C5CCCC5)s4)nc3c2)nc1 [Example 0068] | – | – | 1000 to 10000 | < 1000
CC(C)Cc1cnc(Nc2ccc3ncc(-c4cnn(CCCN5CCCC5)c4)cc3n2)s1 [Example 0144] | – | – | < 1000 | < 1000
COc1cnccc1-c1ccnc2ccc(Nc3nnc(C(C)C)s3)nc12 [Example 0279] | < 1000 | < 1000 | – | –
Cc1nnc(Nc2ccc3ncc(N(C)c4cn[nH]c4)cc3n2)s1 [Example 0183, N^7-methyl-N^2-(5-methyl-1,3,4-thiadiazol-2-yl)-N^7-(1H-pyrazol-4-yl)-1,5-naphthyridine-2,7-diamine] | – | – | 1000 to 10000 | < 1000
Cc1cnccc1-c1cnc2ccc(Nc3cc(C(C)C)cnn3)nc2c1 [Example 0361] | 1000 to 10000 | < 1000 | – | –
c1nc2ccc(Nc3nnc(CC4CC4)s3)nc2cc1-c1cnn(CCCN2CCCC2)c1 [Example 0256, 5-(Cyclopropylmethyl)-N-(7-(1-(3-(pyrrolidin-1-yl)propyl)-1H-pyrazol-4-yl)-1,5-naphthyridin-2-yl)-1,3,4-thiadiazole-2-amine] | < 1000 | < 1000 | – | –
c1ccc(-c2cncc(Nc3cnc4ccc(Nc5nnc(C6CCCC6)s5)nc4c3)c2)cc1 [Example 0070] | – | – | < 1000 | < 1000
c1cc(Nc2cnc3ccc(Nc4nnc(C5CCCC5)s4)nc3c2)ccc1CCN1CCOCC1 [Example 0107] | – | – | < 1000 | < 1000
CNc1nnc(Nc2ccc3ncc(-c4cnn(CCN5CCOCC5)c4)cc3n2)s1 [Example 0249, N^2-methyl-N^5-(7-(1-(2-morpholinoethyl)-1H-pyrazol-4-yl)-1,5-naphthyridin-2-yl)-1,3,4-thiadiazole-2,5-diamine] | < 1000 | < 1000 | – | –
CC(C)c1nnc(Nc2ccc3nccc(-c4ccnnc4)c3n2)s1 [Example 0283] | < 1000 | < 1000 | – | –
CCCc1nn(CCCN2CCCC2)cc1-c1cnc2ccc(Nc3cc(C(C)C)cnn3)nc2c1 [Example 0391, N-(5-isopropylpyridazin-3-yl)-7-(3-propyl-1-(3-(pyrrolidin-1-yl)propyl)-1H-pyrazol-4-yl)-1,5-naphthyridine-2-amine] | < 1000 | < 1000 | – | –
CC(C)c1cncc(Nc2cnc3ccc(Nc4nnc(C5CCCC5)s4)nc3c2)c1 [Example 0099] | – | – | < 1000 | < 1000
CC(C)c1nnc(Nc2ccc3nccc(-c4cc[nH]c(=O)c4)c3n2)s1 [Example 0289, 4-(6-((5-isopropyl-1,3,4-thiadiazol-2-yl)amino)-1,5-naphthyridin-4-yl)pyridin-2(1H)-one] | < 1000 | 1000 to 10000 | – | –
Cc1cnnc(Nc2ccc3ncc(-c4cn(C)nc4CO[Si](C)(C)C(C)(C)C)cc3n2)c1 [Example 0396, 7-(3-(((tert-butyldimethylsilyl)oxy)methyl)-1-methyl-1H-pyrazol-4-yl)-N-(5-methylpyridazin-3-yl)-1,5-naphthyridine-2-amine] | 10000 to 50000 | < 1000 | – | –
c1ncc(OCCN2CCOCC2)cc1Nc1cnc2ccc(Nc3nnc(C4CCCC4)s3)nc2c1 [Example 0082] | – | – | < 1000 | < 1000
Cn1cc(-c2cnc3ccc(Nc4cc[nH]n4)nc3c2)cn1 [Example 0033, 7-(1-methyl-1H-pyrazol-4-yl)-N-(1H-pyrazol-3-yl)-1,5-naphthyridine-2-aminetrifluoroacetate] | – | – | 1000 to 10000 | 1000 to 10000
Cn1cc(-c2cnc3ccc(Nc4ccc(NS(C)(=O)=O)nn4)nc3c2)cn1 [Example 0409] | < 1000 | 1000 to 10000 | – | –
CCc1nn(CCCN2CCCC2)cc1-c1cnc2ccc(Nc3cc(C(C)C)cnn3)nc2c1 [Example 0386, 7-(3-ethyl-1-(3-(pyrrolidin-1-yl)propyl)-1H-pyrazol-4-yl)-N-(5-isopropylpyridazin-3-yl)-1,5-naphthyridine-2-amine] | < 1000 | < 1000 | – | –
COCCc1nn(C)cc1-c1cnc2ccc(Nc3nnc(C(C)C)s3)nc2c1 [Example 0389, 5-isopropyl-N-(7-(3-(2-methoxyethyl)-1-methyl-1H-pyrazol-4-yl)-1,5-naphthyridin-2-yl)-1,3,4-thiadiazole-2-amine] | < 1000 | < 1000 | – | –
CN(C)CC(C)(C)Cn1cc(-c2cnc3ccc(Nc4nnc(C5CCCC5)s4)nc3c2)cn1 [Example 0317, 5-Cyclopentyl-N-(7-(1-(3-(dimethylamino)-2,2-dimethylpropyl)-1H-pyrazol-4-yl)-1,5-naphthyridin-2-yl)-1,3,4-thiadiazole-2-amine] | < 1000 | < 1000 | – | –
c1nc2ccc(Nc3nnc(CN4CCOCC4)s3)nc2cc1-c1cnn(CCCN2CCCC2)c1 [Example 0255, 5-(morpholinomethyl)-N-(7-(1-(3-(pyrrolidin-1-yl)propyl)-1H-pyrazol-4-yl)-1,5-naphthyridin-2-yl)-1,3,4-thiadiazole-2-amine] | 1000 to 10000 | < 1000 | – | –

More lines, now with the values ahead:

IC50 (human PI3Kα protein) [nM] | IC50 ([1]; ERK2 enzyme assay (1)) [nM] | IC50 (human PI3Kα protein; [2]) [nM] | IC50 [1, 3] [nM] | SMILES
– | – | < 1000 | 1000 to 10000 | CS(=O)(=O)N1CCCC(Nc2cnc3ccc(Nc4nnc(C5CCCC5)s4)nc3c2)C1 (centres unmarked) [Example 0109]
– | – | 1000 to 10000 | < 1000 | CN(c1cnc2ccc(Nc3nnc(C4CCCC4)s3)nc2c1)c1cnn(C)c1 [Example 0195, N^2-(5-cyclopentyl-1,3,4-thiadiazol-2-yl)-N^7-methyl-N^7-(1-methyl-1H-pyrazol-4-yl)-1,5-naphthyridine-2,7-diamine]
– | – | 1000 to 10000 | < 1000 | OC1CCN(c2cnc3ccc(Nc4nnc(C5CCCC5)s4)nc3c2)CC1 [Example 0051]
10000 to 50000 | 1000 to 10000 | – | – | COc1ccccc1Nc1cnc2ccc(Nc3nnc(C4CCCC4)s3)nc2c1 [Example 0219, N^2-(5-cyclopentyl-1,3,4-thiadiazol-2-yl)-N^7-(2-methoxyphenyl)-1,5-naphthyridine-2,7-diamine]
< 1000 | < 1000 | – | – | c1cnnc(Nc2cnc3ccc(Nc4nnc(C5CCCC5)s4)nc3c2)c1 [Example 0224, N^2-(5-cyclopentyl-1,3,4-thiadiazol-2-yl)-N^7-(pyridazin-3-yl)-1,5-naphthyridine-2,7-diamine]
1000 to 10000 | < 1000 | – | – | c1n[nH]cc1Nc1cnc2ccc(Nc3nnc(C4CCCCC4)s3)nc2c1 [Example 0223]
< 1000 | < 1000 | – | – | CN(c1cnc2ccc(Nc3nnc(C4CCCC4)s3)nc2c1)C1CCOC1 (centres unmarked) [Example 0326, N^2-(5-cyclopentyl-1,3,4-thiadiazol-2-yl)-N^7-methyl-N^7-(tetrahydrofuran-3-yl)-1,5-naphthyridine-2,7-diamine]
< 1000 | < 1000 | – | – | CN(C)CCn1cc(-c2cnc3ccc(Nc4nnc(C5CCCC5)s4)nc3c2)cn1 [Example 0304, 5-Cyclopentyl-N-(7-(1-(2-(dimethylamino)ethyl)-1H-pyrazol-4-yl)-1,5-naphthyridin-2-yl)-1,3,4-thiadiazole-2-amine]
– | – | 1000 to 10000 | < 1000 | CS(=O)(=O)N1CCN(c2cnc3ccc(Nc4nnc(C5CCCC5)s4)nc3c2)CC1 [Example 0053, 5-cyclopentyl-N-(7-(4-(methylsulfonyl)piperazin-1-yl)-1,5-naphthyridin-2-yl)-1,3,4-thiadiazole-2-amine hydrochloride]
1000 to 10000 | < 1000 | – | – | C1=C(c2cnc3ccc(Nc4nnc(C5CCCC5)s4)nc3c2)CCNC1 [Example 0330, 5-cyclopentyl-N-(7-(1,2,3,6-tetrahydropyridin-4-yl)-1,5-naphthyridin-2-yl)-1,3,4-thiadiazole-2-amine hydrochloride]
– | – | 1000 to 10000 | < 1000 | OCCCN1CCN(c2cnc3ccc(Nc4nnc(C5CCCC5)s4)nc3c2)CC1 [Example 0050]
10000 to 50000 | < 1000 | – | – | COc1cc(-c2cnc3ccc(Nc4nnc(C5CCCC5)s4)nc3c2)ccc1O [Example 0202]
– | – | 10000 to 50000 | < 1000 | CN1CCCN(c2cnc3ccc(Nc4nnc(C5CCCC5)s4)nc3c2)CC1 [Example 0060]
– | – | 1000 to 10000 | < 1000 | CN(c1cn[nH]c1)c1cnc2ccc(Nc3nnc(C4CCCC4)s3)nc2c1 [Example 0196, N^2-(5-cyclopentyl-1,3,4-thiadiazol-2-yl)-N^7-methyl-N^7-(1H-pyrazol-4-yl)-1,5-naphthyridine-2,7-diamine]
– | – | 1000 to 10000 | < 1000 | COC[C@@H]1CCCN1c1cnc2ccc(Nc3nnc(C4CCCC4)s3)nc2c1 [Example 0061]
– | – | 1000 to 10000 | < 1000 | Cn1cc(Nc2cnc3ccc(Nc4nnc(C5CCCC5)s4)nc3c2)cn1 [Example 0194]
– | – | 1000 to 10000 | < 1000 | Cc1ccncc1Nc1cnc2ccc(Nc3nnc(C4CCCC4)s3)nc2c1 [Example 0079]

Source: US9783536B2, “Nitrogen-containing heterocyclic compound or salt thereof” (FUJIFILM Corporation, priority 2013, dated 2017)
